Source: patent US12162889B2, “Luminogens for biological applications” (THE HONG KONG UNIVERSITY OF SCIENCE AND TECHNOLOGY, priority 2016, dated 2024)
Each block holds one compound with its values, some of them ahead of it.

Key:
[1] = system: HeLa cells; assay: Cell imaging of living HeLa cells with AIE dots; format: cell-based; settings: dye as AIE dots, 12 h, 37° C.
Procedure: Generally, 1 mg of the AIEgen and 5 mg of DSPE-PEG-Biotin were dissolved in 1 mL of chloroform. Subsequently, 9 mL of Milli-Q water was added into the chloroform solution under sonication for 10 minutes at room temperature using a microtip probe sonicator with an 18 W output (XL2000, Misonix Incorp., USA). The mixture was stirred in the nitrogen flow overnight until the chloroform was completely evaporated. A clear solution was obtained, and the solution was filtered through a 0.45 μm microfilter to result in the formation of AIE dots.
Cell Culture: HeLa cells were cultured in MEM containing 10% FBS and antibiotics (100 units/mL penicillin and 100 µg/mL streptomycin) in a 5% CO2 humidity incubator at 37° C. All culture media were supplemented with 10% heat-inactivated FBS, 100 units/mL penicillin, and 100 μg/mL streptomycin. Before the experiment, the cells were precultured until confluence was reached.
Cell Imaging: HeLa cells were grown overnight on a 35 mm petri dish with a cover slip at 37° C. After removal of the medium, the adherent cells were washed twice with 1× phosphate buffered saline (PBS) buffer. The AIE dots were then added to the chamber. After incubation for 12 hours, the cells were washed three times with 1×PBS buffer. The cells were imaged on a Zeiss laser scanning confocal microscope and analyzed using ZEN 2009 software.

[2] = Two-photon absorption; format: physicochemical
Text: The TPA spectrum of AIE dots in water with the wavelength range from 800-1000 nm at 20 nm intervals was investigated. […] Moreover, a 900 nm fs laser expects to have deeper penetration and better focusing capability than the commonly used 770-860 nm Ti:Sapphire fs laser. Therefore, the TTS dots are a promising candidate for two-photon deep-tissue in vivo bioimaging.

[3] = Photoluminescence (emission) spectra in solvents, THF/water aggregates, powder and dots; format: physicochemical
Text: The photoluminescence (PL) spectrum of TTS (FIG. 66) is basically a flat line parallel to the abscissa in pure THF. The spectral pattern remains unchanged at water content up to 40%. Afterwards, the PL intensity increases dramatically. The higher the water fraction, the stronger the emission intensity. The emission peak reaches to ˜636 nm. The emission intensity reaches its maximum value at 90% water content, which is 170-fold higher than that in pure THF
When the solvent polarity was increased from Tol to NMP, the emission of TTB, TTA, and TTS are red-shifted with an emission quenching effect. […] However, compared with TTB molecule, TTA and TTS molecules are more sensitive to solvent polarity. TTA and TTS are emissive in Tol, weak emissive in DO and nonemissive in THF with medium polarity. In contrast, TTB is highly emissive in Tol, DO, and THF, and even in the high polarity solvent NMP, TTB is still emissive observed by the naked eye. […] It is probable that even in THF with medium polarity, the conformation of the TTA or TTS becomes twisted and the charge becomes separated.
In pure THF solution, it is non-emissive. The PL intensity remains unchanged at water fraction fw<50%. Afterwards, the PL intensity reaches its maximum value at 90% water content with emission peak at ˜635 nm. Thus, both TTS and TTA are AIE-active.
(§1) Due to the higher ΦF and much better processability of TTS, it was chosen for further biological applications. For easy dispersion of the highly hydrophobic TTS molecules in an aqueous environment, the TTS dots were formulated through a simple procedure by a nanoprecipitation method with amphiphilic and biocompatible 1,2-distearoyl-sn-glycero-3-phosphoethanolamine-N [methoxy(polyethyleneglycol)-2000] (DSPE-PEG 2000) as the encapsulation matrix (FIG. 70). […] TTS dots have an absorption maxima at 497 nm in aqueous media, which fits well with the commercial laser excitation at 488 nm. The strong emission of TTS dots (FIG. 71B) peaks at the red region (630 nm) and tails to the near-infrared region (820 nm). It is noteworthy that the Stokes shift of the TTS dots is big enough (>130 nm) to solve the serious problem of the self-quenching effect common in conventional organic dye molecules.

[4] = Energy band gap and HOMO/LUMO from absorption onset and onset oxidation potential; format: physicochemical
[5] = Fluorescence quantum yield and lifetime; format: physicochemical
[6] = Absorption spectra in solvents / aqueous media; format: physicochemical
Text: With introduction of extra arylamine units to the TTB molecule, the absorption peak of TTS is slightly red-shifted due to longer electronic conjugation.
as §1

[7] = in methanol; cited from earlier work
[8] = aggregate, excitation 900 nm laser

Compound: COc1ccc(C(=C(c2ccccc2)c2ccc(-c3sc(-c4ccc(C(=C(c5ccc(OC)cc5)c5ccc(OC)cc5)c5ccccc5)cc4)c4nc(-c5ccccc5)c(-c5ccccc5)nc34)cc2)c2ccc(OC)cc2)cc1 [MTPE-TP, 5,7-bis(4-(2,2-bis(4-methoxyphenyl)-1-phenylvinyl)phenyl)-2,3-diphenylthieno[3,4-b′]pyrazine]
- fluorescence in cells [1]: intense red fluorescence was observed in the cellular cytoplasms

Compound: c1ccc(-c2nc3c(-c4ccc(N(c5ccccc5)c5cccc6ccccc56)cc4)c4nsnc4c(-c4ccc(N(c5ccccc5)c5cccc6ccccc56)cc4)c3nc2-c2ccccc2)cc1 [NPB-TQ, N,N′-((6,7-diphenyl-[1,2,5]thiadiazolo[3,4-g]quinoxaline-4,9-diyl)bis(4,1-phenylene))bis(N-phenylnaphthalen-1-amine)]
- two-photon absorption properties [2]: excellent two-photon absorption properties

Compound: CCCCCCCCN1c2ccc(-c3ccc(-c4ccc(N(c5ccccc5)c5ccccc5)cc4)c4nsnc34)cc2Sc2cc(-c3ccc(-c4ccc(N(c5ccccc5)c5ccccc5)cc4)c4nsnc34)ccc21 [PTZ-BT-TPA, 4,4′-((10-octyl-10H-phenothiazine-3,7-diyl)bis(benzo[c][1,2,5]thiadiazole-7,4-diyl))bis(N,N-diphenylaniline)]
- two-photon absorption properties [2]: excellent two-photon absorption properties
- fluorescence in cells [1]: intense red fluorescence was observed in the cellular cytoplasms

Compound: c1ccc(C(=C(c2ccccc2)c2ccc(-c3ccc(N(c4ccc(-c5ccc(C(=C(c6ccccc6)c6ccccc6)c6ccccc6)cc5)cc4)c4ccc(-c5sc(-c6ccc(N(c7ccc(-c8ccc(C(=C(c9ccccc9)c9ccccc9)c9ccccc9)cc8)cc7)c7ccc(-c8ccc(C(=C(c9ccccc9)c9ccccc9)c9ccccc9)cc8)cc7)cc6)c6c5N=S=N6)cc4)cc3)cc2)c2ccccc2)cc1 [TPE-TPA-TT, N,N′-(thieno[3,4-b][1,2,5]thiadiazole-5,7-diylbis(4,1-phenylene))bis(4′-(1,2,2-triphenylvinyl)-N-(4′-(1,2,2-triphenylvinyl)-[1,1′-biphenyl]-4-yl)-[1,1′-biphenyl]-4-amine)]
- two-photon absorption properties [2]: excellent two-photon absorption properties

- maximum two-photon absorption cross section [2, 8]: 310 GM
- λem emission maximum soln ([3]; THF solution): 641
- λem emission maximum aggr ([3]; THF/water mixture (1:9 by volume)): 636
- emission intensity at 90% water content relative to pure THF ([3]; THF/water, 10 μM, excitation 480 nm): 170 fold
- emission peak in THF/water mixture ([3]; aggregate state, high water content (90%)): ~636 nm
- λem emission maximum powder ([3]; solid powder): 636
- λem emission maximum ([3]; solvent DO, excitation 480 nm): 640 nm
- λem emission maximum ([3]; solvent Tol, excitation 480 nm): 623 nm
- LUMO ([4]; LUMO = HOMO + Eg): −2.84 eV
- Eg energy band gap ([4]; calculated from the onset of the absorption spectrum): 2.21 eV
- HOMO ([4]; calculated from the onset oxidation potential): −5.05 eV
- fluorescence quantum yield ΦF soln ([5]; THF solution, in parentheses): (0.1) %
- quantum efficiency relative to rhodamine B [5, 8]: 38.5%
- τ fluorescence lifetime of solid powders ([5]; solid powder): 1.86 ns
- solid powders fluorescence quantum yield ΦF ([5]; solid powder, in parentheses): (34.1) %
- λab absorption maximum in THF ([6]; THF (Table 2)): 481 nm
- λab absorption maximum ([6]; solvent DO): 478 nm
- λab absorption maximum ([6]; solvent NMP): 484 nm
- λab absorption maximum ([6]; solvent THF): 481 nm
- λab absorption maximum ([6]; solvent Tol): 484 nm
Compound: c1ccc(C(=C(c2ccccc2)c2ccc(N(c3ccc(-c4ccc(-c5ccc(N(c6ccc(C(=C(c7ccccc7)c7ccccc7)c7ccccc7)cc6)c6ccc(N(c7ccccc7)c7ccccc7)cc6)cc5)c5nsnc45)cc3)c3ccc(N(c4ccccc4)c4ccccc4)cc3)cc2)c2ccccc2)cc1 [TTS]

Compound: CCN(CC)c1ccc2c(-c3ccccc3C(=O)O)c3ccc(=[N+](CC)CC)cc-3oc2c1.[Cl-] [rhodamine B]
- ΦF of reference [7]: 41.9%
